These results are taken from article PMC12071940, “Shortened PGLYRP1 Peptides Regulate Antitumor Activity of Cytotoxic Lymphocytes via TREM-1 Receptor: From Biology to Bioinformatics” (International Journal of Molecular Sciences, 2025).

One data set deals with MHC-negative tumor cells. As to conditions: ref [24,27,42]; cited from earlier work. An excerpt:
The interaction of ligands with TREM-1 on the cell membrane leads to dimerization of the receptor, followed by activation of the metalloprotease MMP-9 [37], cleavage, and dissociation of the exodomain from the cell surface. sTREM-1 is considered a biomarker of infection and viral diseases. Further activation of the receptor develops in two ways. Triggering cascades of tyrosine kinases leads to activation of the NFkß factor, expression of pro-inflammatory cytokines, and development of inflammatory processes. In turn, the release of cytokines leads to the appearance of ...

In the next data set the test system is tumor cells (K562). More on the design: method as in printed at the place. The following applies: other TREM-1 ligands, 'just as it was shown'; no ref given; cited from earlier work.
Data set [1] concerns TREM-1 receptor. The data set can be described thus: Inhibition of cytotoxicity induced by the sum of N9 and N15 peptides. Type of data set: cell-based, human. As to conditions: PBMC with N9 + N15, 6 days; K562. The procedure:
(§1) The combined effect of these peptides stimulated the activation of cytotoxic lymphocytes. […] In addition, the induction of the cytotoxic effect of lymphocytes is TREM-1-dependent.
(§2) For cytotoxicity tests, cells of the K562 line were cultured in 96-well plates (Luoyang Fudau Biotech Co, Luoyang, Henan, China) (6 × 10^4 per well) before the addition of lymphocytes (1.2 × 10^6 per well) and then incubated at 37 °C in an atmosphere with 5% CO2 for 3–20 h. Cytotoxicity was measured using a Cytotox 96 analysis kit (Promega, Madison, WI, USA) after 24 h of incubation in accordance with the manufacturer’s protocol. […] Polyclonal antibodies to Tag7 were obtained from ABclonal (ABclonal, Woburn, MA, USA). Monoclonal antibodies to TREM-1 were obtained from Thermo Fisher Scientific (Thermo Fisher Scientific, Waltham, MA, USA).

Data set [2] deals with TREM-1 receptor. The data set can be described thus: Inhibition of cytotoxic activity of PBMC induced by peptide N3. Type of data set: cell-based, human. As to conditions: PBMC preincubated 1 h with peptide (10^−9 M), then N3 added; cytotoxicity after 6 days, K562. The protocol:
The inhibitory and activating activities were investigated. To determine the inhibitory activity, PBMC were preincubated with the studied peptides for 1 h, then the activating peptide N3 was added, and the cytotoxic activity of lymphocytes was determined after 6 days.
as §2

In another data set the test system is K562 cells. Nature of the data set: Cytotoxic activity of human PBMC incubated 6 days with Tag7 peptides (single or combined), tested on K562 cells. Format: cell-based. The following applies: single peptide, 10^−9 M, human PBMC 6 days, then K562; n = 5. The procedure:
The synthesized peptides were incubated with isolated human PBMC for 6 days. Thereafter, the activated lymphocytes were added to MHC-negative tumor cells of the K562 line, and their cytotoxic effect on these cells was determined.
as §1
K562, RAW264.7 cells were cultivated in RPMI-1640 (Himedia Laboratories Private Limited, Maharashtra, India) with 2 mM L glutamine, 10% FCS (Invitrogen, Carlsbad, CA, USA), with 1% kanamycin (Thermo Fisher Scientific, Waltham, MA, USA). […] CD4+ (CD8+) T-lymphocytes were isolated from the PBMCs using the Dynabeads^TM Untouched^TM Human CD4 T Cells Kit, and NK cells were isolated from PBMC by Dynabeads^TM Untouched^TM Human NK Cells Kit according to the manufacturer’s protocol (Thermo Fisher Scientific, Waltham, MA, USA).
as §2

Ends that are not written are not given here.

As to “HMGB1: multifunctional protein, TREM-1 ligand”, the “stimulation of cytokines and activation of cytotoxic lymphocytes” value (“stimulation” below) in the data set on MHC-negative tumor cells is “not only stimulate the production of pro-inflammatory cytokines but also induce the activation of cytotoxic lymphocytes against MHC-negative tumor cells”. Further, the “type of tumor cell death induced” value in the data set on tumor cells (K562) is “induced apoptosis and necroptosis in tumor cells”.
Turning to “Hsp70: main heat shock protein, TREM-1 ligand”, the “stimulation” value with MHC-negative tumor cells is given as “not only stimulate the production of pro-inflammatory cytokines but also induce the activation of cytotoxic lymphocytes against MHC-negative tumor cells”. For the same substance, in the data set on tumor cells (K562), the “type of tumor cell death induced” value was “induced apoptosis and necroptosis in tumor cells”.
In the case of “LQVTDSGLYRCVIYHPP [LP17, reference compound]”, the “inhibition of cytotoxicity of the sum of N9 and N15” value in the data set with TREM-1 receptor [1] was “inhibited”.
In the case of PASCQQQAR [N9], in the data set with TREM-1 receptor [2], the “inhibition of N3-stimulated cytotoxic activity” value is listed as “inhibited the development of cytotoxic activity stimulated by peptide N3”. Also, the “activation of cytotoxic lymphocytes” value in the data set with K562 cells was “do not activate cytotoxic lymphocytes”.
Turning to RNVQHYHMKT [17.0], the “inhibition of N3-stimulated cytotoxic activity” value with TREM-1 receptor [2] was “inhibited the development of cytotoxic activity stimulated by peptide N3”. Besides, in the data set with K562 cells, the “activation of cytotoxic lymphocytes” value is recorded as “do not activate cytotoxic lymphocytes”. For the same substance, the “inhibition of cytotoxicity of the sum of N9 and N15” value in the data set with TREM-1 receptor [1] is “inhibited”.
For the substance RYVVVSHTAGSSCNT [N15], in the data set with TREM-1 receptor [2], the “inhibition of N3-stimulated cytotoxic activity” value is reported as “had no inhibitory effect on the induction of the TREM-1-dependent signal”. In addition, in the data set with K562 cells, the “activation of cytotoxic lymphocytes” value is “do not activate cytotoxic lymphocytes”.
For the substance “Tag7: innate immunity protein PGLYRP1; recombinant Tag7”, in the data set with MHC-negative tumor cells, the “stimulation” value is “not only stimulate the production of pro-inflammatory cytokines but also induce the activation of cytotoxic lymphocytes against MHC-negative tumor cells”. Further, in the data set on tumor cells (K562), the “type of tumor cell death induced” value was “induced apoptosis and necroptosis in tumor cells”.
